# “Also recorded” adds a separate entry of the source.
# How the values were obtained:
# [1] = system: human intestinal Caco-2 cells; assay: MTT cytotoxicity (cell viability) assay; format: cell-based; settings: for Survival Rates: n = 5, mean ± SD
# Procedure: Cell viability was assessed using an MTT assay. Briefly, 0.1 mL of human intestinal Caco-2 cells was seeded onto 96-well plates at a density of 1×10^5 cells per well in a 96-well plate. The cells were grown in an atmosphere with 5% CO2 and 95% relative humidity over approximately 48 h. Subsequently, the culture medium was replaced with HBSS containing different concentrations of loganin (0.1-200 μM); the final concentration of dimethyl sulfoxide (DMSO) in HBSS remained at <1%. The negative control was HBSS containing 1% DMSO. […] Then, 0.2 mL of 0.5mg/mL MTT solution was added to each well and incubated for 4 h in dark. The medium was then removed, the MTT-formazan crystals were solubilized by incubating with 150 μL of DMSO with gentle shaking for 10 min, and absorbance was determined at 490 nm in a Multiskan Spectrum microplate reader (Thermo Labsystems, MA, USA). In each MTT assay, every sample was tested in five replicates and the viability of the nontreated control cells was arbitrarily defined as 100%.
# [2] = Bidirectional transport across Caco-2 cell monolayers (concentration, time, pH, temperature; control without inhibitor); format: in vitro ADME, human; settings: human; for Papp A→B at 60 min, 20 µM: Caco-2, pH 7.4, loganin 20 μM, AP to BL
# Procedure: (§1) Cells were maintained in DMEM with 10% FBS, 1× nonessential amino acids, and 1× penicillin and streptomycin at 37°C with 5% CO2. Cells of passage 35-40 were used in this study to maintain relatively constant cellular phenotypes. The medium was replaced every 2-3 days during incubation. After reaching approximately 80% confluence, the cells were detached using 0.02% ethylenediaminetetraacetic acid (EDTA) and 0.05% trypsin at a density of 5.3×10^4 cells/cm^2 on a 60-mm plastic culture dish for the uptake experiment or a 12-mm polyester membrane insert in a 12-well plate for the permeation experiment. The media in the culture plates were changed every two days for the first week after seeding and replaced daily afterward. The integrity of the cell monolayers was examined by measuring the transepithelial electrical resistance (TEER) with a Millicell-ERS-electrode (Millipore Corp, Billerica, MA, USA). After 21-23 days, monolayers with a TEER value (TEER=[TEERtest- TEERbackground]×area) above 500Ωcm^2 were used during the transport experiments.
# (§2) Before the experiments, the human intestinal Caco-2 cell monolayers were washed twice with HBSS medium (pH 7.4). The transport experiments were conducted by adding the drug solutions (containing 1% DMSO) to either the apical (AP, 0.5 mL) or basolateral side (BL, 1.0 mL), while the receiving chamber contained the corresponding volume of blank HBSS medium. The monolayers were incubated at 37°C, and 50 μL samples were taken at 15, 30, 45, 60, 90, and 120 min from the acceptor compartment, and the volume was then immediately replaced with50 μL of fresh, prewarmed blank HBSS. TEER measurements for assessing the membrane integrity took place before and after the experiment. The samples were frozen immediately and stored below −80°C before analysis.
# (§3) The loganin transport (20 μM) at 4°C and 37°C was evaluated in the AP to BL direction to investigate the effect of temperature. The effect of pH on the loganin transport (20 μM) in the AP to BL direction was studied using the following pH combinations for the HBSS in the acceptor/donor compartments: 6.0/7.4 and 7.4/7.4.
# (§4) UPLC-MS/MS data acquisition was performed using Analyst 1.5.2 and MultiQuant 2.1.1 software (Applied Biosystems). The data were analyzed by SPSS Software. The apparent permeability coefficient (Papp) was calculated according to Papp = (dQ/dt)/(A·C0)
# (§5) where dQ/dt is the steady-state flux (nmol/s), A is the surface area of the insert (cm^2); C0 is the initial concentration. The efflux ratio (P) was determined by calculating the ratio of PappBA versus PappAB as in(1) P=PappBA/PappAB Statistical analysis was performed with analysis of variance (ANOVA) after confirmation of normal distributions.
# [3] = system: human intestinal Caco-2 cell monolayers; assay: as above; format: in vitro ADME
# Procedure: as §1, §2, §3, §4, §5
# P-glycoprotein (P-gp) [4] = molecular target: T1, P-glycoprotein (P-gp) (Homo sapiens, UniProt P08183); assay: Loganin transport across Caco-2 monolayers with P-gp inhibitor verapamil; format: in vitro ADME
# T1 construct: endogenous in cells; host or cells: Caco-2 monolayers
# T1 sequence (P08183 whole entry): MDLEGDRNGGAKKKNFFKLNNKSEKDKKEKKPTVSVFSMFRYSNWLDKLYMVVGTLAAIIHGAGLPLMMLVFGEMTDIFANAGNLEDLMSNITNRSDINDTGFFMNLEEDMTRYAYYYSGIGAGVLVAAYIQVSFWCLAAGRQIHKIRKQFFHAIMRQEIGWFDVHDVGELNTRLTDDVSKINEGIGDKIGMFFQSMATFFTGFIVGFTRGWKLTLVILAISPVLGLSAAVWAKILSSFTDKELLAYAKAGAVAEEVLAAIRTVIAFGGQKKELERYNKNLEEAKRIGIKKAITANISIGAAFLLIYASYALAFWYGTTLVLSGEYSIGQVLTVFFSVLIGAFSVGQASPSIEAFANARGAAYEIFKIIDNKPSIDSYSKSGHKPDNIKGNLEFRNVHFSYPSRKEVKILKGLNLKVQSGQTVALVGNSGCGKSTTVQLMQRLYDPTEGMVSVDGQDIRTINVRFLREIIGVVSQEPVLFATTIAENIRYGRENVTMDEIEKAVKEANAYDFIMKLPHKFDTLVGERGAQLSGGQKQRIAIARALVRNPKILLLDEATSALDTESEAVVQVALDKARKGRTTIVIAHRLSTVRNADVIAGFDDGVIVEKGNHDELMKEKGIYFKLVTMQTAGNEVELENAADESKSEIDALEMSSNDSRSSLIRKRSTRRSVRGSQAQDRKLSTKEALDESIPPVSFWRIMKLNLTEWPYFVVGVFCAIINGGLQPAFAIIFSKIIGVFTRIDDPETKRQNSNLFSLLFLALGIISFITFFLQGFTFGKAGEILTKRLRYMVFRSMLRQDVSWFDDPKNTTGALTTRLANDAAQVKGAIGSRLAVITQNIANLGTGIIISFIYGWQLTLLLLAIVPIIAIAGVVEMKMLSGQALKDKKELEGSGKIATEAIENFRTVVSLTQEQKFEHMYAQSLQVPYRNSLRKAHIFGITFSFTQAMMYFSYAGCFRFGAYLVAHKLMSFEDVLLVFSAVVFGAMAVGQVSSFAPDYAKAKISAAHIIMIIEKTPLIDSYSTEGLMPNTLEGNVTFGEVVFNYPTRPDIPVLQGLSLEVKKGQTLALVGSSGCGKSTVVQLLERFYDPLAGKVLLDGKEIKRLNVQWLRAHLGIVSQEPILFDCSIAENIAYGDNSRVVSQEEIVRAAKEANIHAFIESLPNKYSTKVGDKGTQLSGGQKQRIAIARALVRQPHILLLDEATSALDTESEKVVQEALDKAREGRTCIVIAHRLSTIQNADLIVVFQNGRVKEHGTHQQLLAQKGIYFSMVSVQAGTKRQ
# Procedure: as §2
# (§6) Several efflux and influx transporters were investigated for their effects on the transport flux of loganin. One hundred μM verapamil was added to evaluate the selectivity of P-glycoprotein (P-gp); inhibiting the efflux by multidrug resistance-associated proteins (MRPs) was undertaken by adding 100μM MK571, 50μM benzbromarone, and 200μM indomethacin [21–23]; 25 μM apigenin was used to investigate breast cancer resistance protein (BCRP); 50 μM sodium vanadate and cimetidine were used as Na^+/K^+pump and […] inhibitors.
# as §4, §5
# P-glycoprotein (P-gp) [5] = system: T2, P-glycoprotein (P-gp); assay: as above; format: in vitro ADME, human; settings: human, Caco-2, pH 7.4; with verapamil 100 μM, loganin 20 μM, n = 3
# T2 construct: endogenous in cells; host or cells: Caco-2 monolayers
# Procedure: as §2, §6, §4, §5
# MRPs = assay: Loganin transport across Caco-2 monolayers with MRPs inhibitor MK 571; format: in vitro ADME, human
# Procedure: as §2, §6, §4, §5
# [6] = Caco-2, pH 7.4, control, no inhibitor, loganin 20 μM, n = 3
# [7] = human, Caco-2, pH 7.4, with MK571 100 μM, with MK 571 100 μM, loganin 20 μM, n = 3
structure (smiles),measurement,setting,value
"COC(=O)C1=CO[C@@H](O[C@@H]2O[C@H](CO)[C@@H](O)[C@H](O)[C@H]2O)[C@@H]2[C@@H](C)[C@@H](O)C[C@H]12 [loganin, Loganin]",Survival Rates,"[1]; loganin 0.1 μM, MTT",107.66±10.9%
same,Survival Rates,"[1]; loganin 1 μM, MTT",108.73±25.4%
same,Survival Rates,"[1]; loganin 5 μM, MTT",106.57±8.3%
same,Survival Rates,"[1]; loganin 10 μM, MTT",106.22±10.9%
same,Survival Rates,"[1]; loganin 50 μM, MTT",103.45±3.3%
same,Survival Rates,"[1]; loganin 100 μM, MTT",101.45±6.5%
same,Inhibition of Caco-2 cells,"[1]; loganin 200 μM, MTT",4.67%
same,Survival Rates,"[1]; loganin 200 μM, MTT",95.33±5.3%
same,Toxicity to Caco-2 cells (in words),"[1]; loganin 0.1 to 100 μM, after 4 h exposure (so in the source)",nontoxic
same,"Papp A→B at 60 min, 20 µM",[2]; 4°C,7.12 ×10⁻⁶ cm/s
same,"Papp A→B at 60 min, 20 µM",[2]; 37°C,11.3 ×10⁻⁶ cm/s
same,"Papp A→B at 120 min, 20 μM",[2]; [6],13 ± 0.7 ×10⁻⁶ cm/s
same,"Papp B→A at 120 min, 20 μM",[2]; [6],11.7 ± 0.9 ×10⁻⁶ cm/s
same,"efflux ratio at 120 min, 20 μM","[2]; Caco-2, pH 7.4, control, no inhibitor, loganin 20 μM, read-out: P (efflux ratio PappBA/PappAB)",0.9
same,Papp A→B at 120 min,"[2]; Caco-2, pH 7.4, range over 5, 20, 40 and 80 μM loganin, read-out: Absorptive permeability PappAB (AP to BL)",12.2 to 14.8 ×10⁻⁶ cm/s
same,Papp B→A at 120 min,"[2]; Caco-2, pH 7.4, range over 5, 20, 40 and 80 μM loganin, read-out: Secretory permeability PappBA (BL to AP)",11.1 to 13 ×10⁻⁶ cm/s
same,Intestinal absorption indicated by Papp values (in words),[3]; classification by Papp > 1×10^−5cm/s = high absorption (>70%),good intestinal absorption
same,PappAB at pH 7.4 compared with pH 6 (in words),"[3]; loganin 20 μM, AP to BL, 60 min, p<0.05",significantly higher
same,"efflux ratio at 120 min, 20 μM","P-glycoprotein (P-gp) [4]; human, Caco-2, pH 7.4, with verapamil 100 μM, read-out: P (efflux ratio PappBA/PappAB)",0.84
same,Substrate of P-gp (in words),P-glycoprotein (P-gp) [4]; judged from verapamil vs control,not the substrate; also recorded: not a substrate
same,PappAB difference between verapamil and control groups (in words),P-glycoprotein (P-gp) [4]; verapamil 100 μM,insignificant
same,PappAB,"P-glycoprotein (P-gp) [4]; with verapamil 100 μM, loganin 20 μM, n = 3",11.1±1.7 ×10^−6cm/s
same,"Papp B→A at 120 min, 20 μM",P-glycoprotein (P-gp) [5],9.3 ± 1.7 ×10⁻⁶ cm/s
same,Increase of transport from the apical to the basolateral side,"MRPs; after addition of a MRP inhibitor (not named in the abstract), vs control",2.09 fold
same,"Papp A→B at 120 min, 20 μM",MRPs; [7],27.2 ± 4.1 ×10⁻⁶ cm/s
same,"Papp B→A at 120 min, 20 μM",MRPs; [7],3.9 ± 0.2 ×10⁻⁶ cm/s
same,"efflux ratio at 120 min, 20 μM","MRPs; human, Caco-2, pH 7.4, with MK571 100 μM, with MK 571 100 μM, read-out: P (efflux ratio PappBA/PappAB)",0.14

# Reference: article PMC6323428, “Elucidation of the Intestinal Absorption Mechanism of Loganin in the Human Intestinal Caco-2 Cell Model” (Evidence-based Complementary and Alternative Medicine : eCAM, 2018)
